From US9017672B2, “Hexon Tat-PTD modified adenovirus and uses thereof” (Immunicum Aktiebolag, priority 2012, dated 2015) come the findings set out here.

Assay [1] concerns cisplatin-insensitive SK-N-FI cells. The assay is described as follows: Relative cell viability by MTS assay, virus or drug. It is filed as cell-based. The protocol: (§1) FIG. 25. Oncolytic adenovirus in combination with chemotherapy drugs. A cisplatin-insensitive clone of SK-N-FI and doxoru bicin-insensitive, etoposide-insensitive and vincristine-insensitive clones of SH-SY-5Y were established through repeated cycles of culture with increasing drug concentration. (A-D) Drug-sensitive (black lines) and drug-insensitive (grey dotted lines) neuroblastoma cells were then treated with viruses or drugs. The relative cell viability was analyzed after 4 days by MTS assay. (A) Oncolytic virus and cisplatin killing of SK-N-FI cells. (B) Oncolytic virus and etoposide killing of SH-SY-5Y cells. (C) Oncolytic virus and doxorubicin killing of SH-SY-5Y cells. (D) Oncolytic virus and vincristine killing of SH-SY-5Y cells. All data are shown as mean±SD from four independent experiments each with triplicate samples. (E) BON, NCI-H727 and QGP-1 cell lines were treated with PTD-based oncolytic adenovirus Ad5PTD(i/CgA-E1a-miR122T6) with different evg/cell in absence or presence of 10 μg/mL or 200 μg/mL cyclophosphamide. The relative cell viability was analyzed after 6 days by MTS assay.
(§2) A cisplatin-insensitive clone of the SK-N-FI neuroblastoma cell line and doxorubicin-, etoposide- and vincristine-insensitive clones of SH-SY-SY were established and treated with viruses at different evg/cell or drugs at various concentrations. The relative cell viability was analyzed by MTS assay. […] Ad5PTD(WT) also killed cisplatin-sensitive and insensitive SK-N-FI with the same efficacy (FIG. 25A).

Assay [2] has as its system cisplatin-sensitive SK-N-FI cells. The assay is described as above. It is filed as cell-based. Conditions: drug. The protocol: as §1, §2
For another assay, the system named is human neutrophils. The assay is described as follows: Transwell migration assay of neutrophils against supernatants of virus-transduced BON cells. It is filed as cell-based. Conditions: supernatants 48 hours post-transduction, MOI 10 FFU/cell. The procedure: (§3) BON cells were transduced with viruses Ad5PTDf35(D24-sNAP) or Ad5PTDf35(D24) at MOI 10 FFU/cell. Supernatants were harvested 48 hours post-transduction. (a) Transwell migration assay of human neutrophils isolated from 4 different individuals (2×10^5 cells/well) against harvested supernatants for 2 hours at 37° C. All samples were analyzed in triplicates and the data is represented as mean±SD of number of cells migrated. Supernatant from untransduced BON cells were used as control, (***p<0.001; n=12). (b) Granulocyte activation assay with supernatants from virus-transduced BON cells for 30 minutes at 37° C. Activation was measured in terms of ROI production, which was monitored using fluorescent dye DHR123. Supernatant from untransduced BON cells were used as control. At least 10000 events were recorded in the flow cytometer and MFI of DHR123 was recorded, (**p<0.01; *p<0.05; n=5). (c) Mice bearing BON tumors were treated with two intratumoral injections of Ad5PTDf35(D24-sNAP) or Ad5PTDf35(Δ24) (Indicated dotted arrows) and 2 mice per group were sacrificed, blood and tumor samples were drawn at different time points (indicated by solid arrows). Serum was separated from blood by centrifugation at 300 g for 10 min. Concentration of various cytokines determined by ELISA are represented in (d) TNF-α, (e) MIP2-α and (f) IL12/23 p40. […] All samples were analyzed in duplicates. […]

For a further assay, the system named is neutrophils. The assay is described as follows: Granulocyte activation assay, ROI production (DHR123). It is filed as cell-based. Conditions: supernatants of transduced BON cells, 30 minutes. The protocol: as §3
In assay [3] the test system is TNF-α, MIP2-α, IL12/23 p40. The assay is described as follows: Serum cytokines by ELISA after intratumoral virus injections. Type of assay: in vivo. To be noted: BON tumor-bearing mice, two intratumoral injections. The procedure:
as §3

For the molecule `N.N.[Cl][Pt][Cl]` [cisplatin], the IC50 turned out to be 100 µM in assay [1] (cisplatin-insensitive SK-N-FI, drug) and 8 µM in assay [2]. For the same molecule, in assay [1] (cisplatin-insensitive vs cisplatin-sensitive SK-N-FI), the “more drug needed to kill insensitive compared to sensitive cells” value came to 12 fold.

B1: HP-NAP: Helicobacter pylori Neutrophil Activating Protein, here secreted from virus-transduced cells (protein)
chain: MKTFEILKHLQADAIVLFMKVHNFHWNVKGTDFFNVHKATEEIYEEFADMFDDLAERIVQLGHHPLVTLSEAIKLTRVKEETKTSFHSKDIFKEILEDYKYLEKEFKELSNTAEKEGDKVTVTYADDQLAKLQKSIWMLQAHLA
Take B1: the neutrophil migration entry in the assay on human neutrophils is recorded as “efficiently induce neutrophil migration”. For the same molecule, the “neutrophil activation, release of reactive oxygen species” value in the assay on neutrophils is given as “activated them to release reactive oxygen species”. Moreover, the “induction of serum cytokines” value in assay [3] was “induced proinflammatory cytokines (TNF-α and MIP2-α) and Th1 type cytokines (IL12/23 p40)”.
